The target of the experiment is T1, CHLH (CHLH/ABAR) (Arabidopsis thaliana, UniProt Q9FNB0).
T1 construct: ORF in pFastBac HFT-B, Flag-tagged fusion, expressed in Sf9 insect cells; about 150 kDa; full length 1381 residues; amine-coupled on CM5 chip
T1 sequence (Q9FNB0 1-1381): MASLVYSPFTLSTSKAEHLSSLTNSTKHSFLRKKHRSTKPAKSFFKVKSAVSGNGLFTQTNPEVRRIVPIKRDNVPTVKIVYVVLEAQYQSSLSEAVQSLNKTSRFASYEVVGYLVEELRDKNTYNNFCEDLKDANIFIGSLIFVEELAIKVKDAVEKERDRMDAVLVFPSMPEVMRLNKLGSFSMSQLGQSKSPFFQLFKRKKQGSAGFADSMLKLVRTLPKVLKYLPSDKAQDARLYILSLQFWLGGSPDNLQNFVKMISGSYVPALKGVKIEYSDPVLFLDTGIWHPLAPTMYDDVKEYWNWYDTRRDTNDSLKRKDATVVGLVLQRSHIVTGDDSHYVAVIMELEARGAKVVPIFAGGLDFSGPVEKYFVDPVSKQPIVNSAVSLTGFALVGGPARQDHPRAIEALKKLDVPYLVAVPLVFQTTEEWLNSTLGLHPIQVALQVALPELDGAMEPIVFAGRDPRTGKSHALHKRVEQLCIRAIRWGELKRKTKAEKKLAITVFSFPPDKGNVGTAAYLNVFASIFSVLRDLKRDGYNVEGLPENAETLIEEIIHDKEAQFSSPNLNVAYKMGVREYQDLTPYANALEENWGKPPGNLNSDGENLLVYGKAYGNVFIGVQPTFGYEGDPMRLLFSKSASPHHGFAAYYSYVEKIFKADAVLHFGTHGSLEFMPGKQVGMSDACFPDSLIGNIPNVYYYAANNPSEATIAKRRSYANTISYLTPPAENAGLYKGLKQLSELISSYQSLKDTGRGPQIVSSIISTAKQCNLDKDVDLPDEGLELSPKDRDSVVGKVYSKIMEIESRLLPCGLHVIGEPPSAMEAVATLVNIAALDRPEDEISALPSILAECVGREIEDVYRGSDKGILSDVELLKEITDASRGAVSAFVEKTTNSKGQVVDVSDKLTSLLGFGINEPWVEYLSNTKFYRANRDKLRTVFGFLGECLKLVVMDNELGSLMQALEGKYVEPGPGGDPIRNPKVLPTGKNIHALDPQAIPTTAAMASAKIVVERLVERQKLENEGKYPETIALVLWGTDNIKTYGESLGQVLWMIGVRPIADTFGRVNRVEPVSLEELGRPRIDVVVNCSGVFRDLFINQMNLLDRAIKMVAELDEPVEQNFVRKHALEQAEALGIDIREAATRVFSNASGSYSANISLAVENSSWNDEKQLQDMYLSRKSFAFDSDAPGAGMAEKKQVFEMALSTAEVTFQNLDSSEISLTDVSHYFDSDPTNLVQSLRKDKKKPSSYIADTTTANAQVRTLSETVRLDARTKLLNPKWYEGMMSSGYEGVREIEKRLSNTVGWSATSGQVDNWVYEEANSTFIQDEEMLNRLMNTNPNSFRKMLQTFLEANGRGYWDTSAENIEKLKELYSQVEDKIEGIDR
Description: SPR (Biacore T200, CM5 chip, protein immobilized by amine coupling), steady-state fit. The format is binding. Particulars: HBS-EP running buffer with EDTA, pH 7.4, 25 °C, 6-100 μM analyte; unreliable (authors attribute the low affinity to technical limits of SPR).

The structures appear in SMILES notation.

Broadly, the Kd is a measure of binding affinity in units of concentration. Read a high Kd as lower affinity. In turn, `CC1=CC(=O)CC(C)(C)C1(O)/C=C/C(C)=C\C(=O)O` (stereo in doubt) [(+)-ABA] registered a Kd of 20 µM.

The values are drawn from article PMC3472068, “Roles of the different components of magnesium chelatase in abscisic acid signal transduction” (Plant Molecular Biology, 2012).
